Results published in ChEMBL document CHEMBL3627674, “Discovery of wrightiadione as a novel template for the TrkA kinase inhibitors” (Bioorg Med Chem Lett, 2015).

Tests used:
[1] = tested on: Tyrosine-protein kinase ABL1 (Homo sapiens), P00519 [E255K]; experiment: Inhibition of ABL1 E255K mutant phosphorylation (unknown origin) assessed as remaining activity at 10 uM by high-throughput assay relative to control
[2] = target: Activin receptor type-1B (Homo sapiens) (UniProt P36896); experiment: Inhibition of ACVR1B (unknown origin) assessed as remaining activity at 10 uM by high-throughput assay relative to control
Chain of Activin receptor type-1B (Homo sapiens) (P36896 whole entry): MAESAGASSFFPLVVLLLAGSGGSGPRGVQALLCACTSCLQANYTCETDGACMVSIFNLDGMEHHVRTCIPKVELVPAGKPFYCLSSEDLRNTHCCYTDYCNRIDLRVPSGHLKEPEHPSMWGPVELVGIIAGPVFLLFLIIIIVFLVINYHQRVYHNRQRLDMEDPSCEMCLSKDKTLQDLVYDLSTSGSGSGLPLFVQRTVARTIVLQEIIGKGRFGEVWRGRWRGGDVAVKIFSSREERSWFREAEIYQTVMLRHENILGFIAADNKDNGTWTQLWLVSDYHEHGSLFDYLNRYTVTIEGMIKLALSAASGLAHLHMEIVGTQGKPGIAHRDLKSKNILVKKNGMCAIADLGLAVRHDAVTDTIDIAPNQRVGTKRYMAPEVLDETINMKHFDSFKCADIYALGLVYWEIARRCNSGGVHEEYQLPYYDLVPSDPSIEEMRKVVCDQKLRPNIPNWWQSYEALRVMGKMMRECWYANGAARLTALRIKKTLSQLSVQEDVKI

[3] = target: ALK tyrosine kinase receptor (Homo sapiens) (UniProt Q9UM73); experiment: Inhibition of ALK (unknown origin) assessed as remaining activity at 10 uM by high-throughput assay relative to control
[4] = target: Tyrosine-protein kinase receptor UFO (Homo sapiens) (UniProt P30530); experiment: Inhibition of AXL (unknown origin) assessed as remaining activity at 10 uM by high-throughput assay relative to control
Chain of Tyrosine-protein kinase receptor UFO (Homo sapiens) (P30530 whole entry): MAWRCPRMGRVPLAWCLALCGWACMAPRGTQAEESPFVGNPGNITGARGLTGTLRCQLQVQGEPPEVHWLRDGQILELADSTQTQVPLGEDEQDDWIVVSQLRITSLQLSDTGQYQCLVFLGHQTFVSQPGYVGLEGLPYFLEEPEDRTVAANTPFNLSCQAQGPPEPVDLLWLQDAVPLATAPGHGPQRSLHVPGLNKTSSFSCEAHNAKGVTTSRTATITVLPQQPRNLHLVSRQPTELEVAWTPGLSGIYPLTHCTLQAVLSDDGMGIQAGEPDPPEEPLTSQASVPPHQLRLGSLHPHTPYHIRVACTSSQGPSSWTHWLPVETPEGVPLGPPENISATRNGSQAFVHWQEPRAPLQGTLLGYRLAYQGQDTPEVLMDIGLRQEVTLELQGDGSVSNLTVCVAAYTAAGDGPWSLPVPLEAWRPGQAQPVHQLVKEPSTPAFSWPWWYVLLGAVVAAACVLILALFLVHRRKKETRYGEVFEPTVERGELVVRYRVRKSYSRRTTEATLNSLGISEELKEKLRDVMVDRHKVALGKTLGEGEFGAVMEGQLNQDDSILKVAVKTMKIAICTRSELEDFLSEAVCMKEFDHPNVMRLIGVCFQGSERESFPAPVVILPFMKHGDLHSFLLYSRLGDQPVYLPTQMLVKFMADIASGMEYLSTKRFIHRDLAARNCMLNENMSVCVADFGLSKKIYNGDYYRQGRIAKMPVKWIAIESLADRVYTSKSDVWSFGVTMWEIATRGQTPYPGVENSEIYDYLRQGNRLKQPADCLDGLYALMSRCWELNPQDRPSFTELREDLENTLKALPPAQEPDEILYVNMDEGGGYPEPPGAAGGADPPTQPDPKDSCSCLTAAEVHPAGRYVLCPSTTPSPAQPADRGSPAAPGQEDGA

[5] = target: Bone morphogenetic protein receptor type-2 (Homo sapiens) (UniProt Q13873); experiment: Inhibition of BMPR2 (unknown origin) assessed as remaining activity at 10 uM by high-throughput assay relative to control
[6] = target: Serine/threonine-protein kinase B-raf (Homo sapiens) (UniProt P15056); experiment: Inhibition of BRAF (unknown origin) assessed as remaining activity at 10 uM by high-throughput assay relative to control
[7] = target: Cyclin-dependent kinase 2 (Homo sapiens) (UniProt P24941); experiment: Inhibition of CDK2 (unknown origin) assessed as remaining activity at 10 uM by high-throughput assay relative to control
[8] = target: Cyclin-dependent kinase 7 (Homo sapiens) (UniProt P50613); experiment: Inhibition of CDK7 (unknown origin) assessed as remaining activity at 10 uM by high-throughput assay relative to control
[9] = target: Macrophage colony-stimulating factor 1 receptor (Homo sapiens) (UniProt P07333); experiment: Inhibition of CSF1R (unknown origin) assessed as remaining activity at 10 uM by high-throughput assay relative to control
[10] = target: Serine/threonine-protein kinase DCLK1 (Homo sapiens) (UniProt O15075); experiment: Inhibition of DCAMKL1 (unknown origin) assessed as remaining activity at 10 uM by high-throughput assay relative to control
[11] = target: Dual specificity tyrosine-phosphorylation-regulated kinase 1B (Homo sapiens) (UniProt Q9Y463); experiment: Inhibition of DYRK1B (unknown origin) assessed as remaining activity at 10 uM by high-throughput assay relative to control
[12] = target: Epidermal growth factor receptor (Homo sapiens) (UniProt P00533); experiment: Inhibition of EGFR (unknown origin) assessed as remaining activity at 10 uM by high-throughput assay relative to control
[13] = target: Receptor-type tyrosine-protein kinase FLT3 (Homo sapiens) (UniProt P36888); experiment: Inhibition of FLT3 (unknown origin) assessed as remaining activity at 10 uM by high-throughput assay relative to control
[14] = target: Inhibitor of nuclear factor kappa-B kinase subunit alpha (Homo sapiens) (UniProt O15111); experiment: Inhibition of IKK-alpha (unknown origin) assessed as remaining activity at 10 uM by high-throughput assay relative to control
Chain of Inhibitor of nuclear factor kappa-B kinase subunit alpha (Homo sapiens) (O15111 whole entry): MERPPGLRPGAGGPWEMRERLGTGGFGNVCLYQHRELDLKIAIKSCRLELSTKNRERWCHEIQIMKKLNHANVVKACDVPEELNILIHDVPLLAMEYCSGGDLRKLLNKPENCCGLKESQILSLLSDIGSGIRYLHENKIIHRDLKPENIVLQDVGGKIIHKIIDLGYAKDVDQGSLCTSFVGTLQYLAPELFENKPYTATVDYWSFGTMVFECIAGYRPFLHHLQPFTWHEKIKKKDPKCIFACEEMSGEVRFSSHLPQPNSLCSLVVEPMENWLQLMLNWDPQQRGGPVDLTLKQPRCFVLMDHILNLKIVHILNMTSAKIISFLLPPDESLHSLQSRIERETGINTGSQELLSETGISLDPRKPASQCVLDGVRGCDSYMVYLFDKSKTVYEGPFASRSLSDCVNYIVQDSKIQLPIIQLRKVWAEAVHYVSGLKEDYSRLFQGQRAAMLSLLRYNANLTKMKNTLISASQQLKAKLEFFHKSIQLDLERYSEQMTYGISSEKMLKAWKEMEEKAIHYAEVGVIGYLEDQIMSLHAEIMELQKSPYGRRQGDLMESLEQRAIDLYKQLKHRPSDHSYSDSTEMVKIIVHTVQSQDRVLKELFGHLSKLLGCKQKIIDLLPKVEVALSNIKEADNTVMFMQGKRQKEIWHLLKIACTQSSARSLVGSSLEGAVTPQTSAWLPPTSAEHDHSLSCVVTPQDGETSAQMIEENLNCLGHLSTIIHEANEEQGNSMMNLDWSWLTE

[15] = target: Inhibitor of nuclear factor kappa-B kinase subunit beta (Homo sapiens) (UniProt O14920); experiment: Inhibition of IKK-beta (unknown origin) assessed as remaining activity at 10 uM by high-throughput assay relative to control
[16] = target: Tyrosine-protein kinase JAK2 (Homo sapiens) (UniProt O60674); experiment: Inhibition of JAK2 JH1 catalytic domain (unknown origin) assessed as remaining activity at 10 uM by high-throughput assay relative to control
[17] = tested on: Mast/stem cell growth factor receptor Kit (Homo sapiens), P10721 [D816V]; experiment: Inhibition of KIT D816V mutant (unknown origin) assessed as remaining activity at 10 uM by high-throughput assay relative to control
[18] = target: Dual specificity mitogen-activated protein kinase kinase 1 (Homo sapiens) (UniProt Q02750); experiment: Inhibition of MEK1 (unknown origin) assessed as remaining activity at 10 uM by high-throughput assay relative to control
[19] = target: Hepatocyte growth factor receptor (Homo sapiens) (UniProt P08581); experiment: Inhibition of MET (unknown origin) assessed as remaining activity at 10 uM by high-throughput assay relative to control
[20] = target: MAP kinase-interacting serine/threonine-protein kinase 1 (Homo sapiens) (UniProt Q9BUB5); experiment: Inhibition of MKNK1 (unknown origin) assessed as remaining activity at 10 uM by high-throughput assay relative to control
[21] = target: Mitogen-activated protein kinase 14 (Homo sapiens) (UniProt Q16539); experiment: Inhibition of p38-alpha (unknown origin) assessed as remaining activity at 10 uM by high-throughput assay relative to control
[22] = target: Serine/threonine-protein kinase PAK 1 (Homo sapiens) (UniProt Q13153); experiment: Inhibition of PAK1 (unknown origin) assessed as remaining activity at 10 uM by high-throughput assay relative to control
[23] = target: Phosphatidylinositol 4-phosphate 3-kinase C2 domain-containing subunit beta (Homo sapiens) (UniProt O00750); experiment: Inhibition of PIK3C2B (unknown origin) assessed as remaining activity at 10 uM by high-throughput assay relative to control
[24] = target: Serine/threonine-protein kinase pim-3 (Homo sapiens) (UniProt Q86V86); experiment: Inhibition of PIM3 (unknown origin) assessed as remaining activity at 10 uM by high-throughput assay relative to control
[25] = target: cAMP-dependent protein kinase catalytic subunit alpha (Homo sapiens) (UniProt P17612); experiment: Inhibition of PKAC-alpha (unknown origin) assessed as remaining activity at 10 uM by high-throughput assay relative to control
[26] = target: Serine/threonine-protein kinase PLK3 (Homo sapiens, UniProt Q9H4B4); experiment: Inhibition of PLK3 (unknown origin) assessed as remaining activity at 10 uM by high-throughput assay relative to control
Chain of Serine/threonine-protein kinase PLK3 (Q9H4B4 whole entry, looked up): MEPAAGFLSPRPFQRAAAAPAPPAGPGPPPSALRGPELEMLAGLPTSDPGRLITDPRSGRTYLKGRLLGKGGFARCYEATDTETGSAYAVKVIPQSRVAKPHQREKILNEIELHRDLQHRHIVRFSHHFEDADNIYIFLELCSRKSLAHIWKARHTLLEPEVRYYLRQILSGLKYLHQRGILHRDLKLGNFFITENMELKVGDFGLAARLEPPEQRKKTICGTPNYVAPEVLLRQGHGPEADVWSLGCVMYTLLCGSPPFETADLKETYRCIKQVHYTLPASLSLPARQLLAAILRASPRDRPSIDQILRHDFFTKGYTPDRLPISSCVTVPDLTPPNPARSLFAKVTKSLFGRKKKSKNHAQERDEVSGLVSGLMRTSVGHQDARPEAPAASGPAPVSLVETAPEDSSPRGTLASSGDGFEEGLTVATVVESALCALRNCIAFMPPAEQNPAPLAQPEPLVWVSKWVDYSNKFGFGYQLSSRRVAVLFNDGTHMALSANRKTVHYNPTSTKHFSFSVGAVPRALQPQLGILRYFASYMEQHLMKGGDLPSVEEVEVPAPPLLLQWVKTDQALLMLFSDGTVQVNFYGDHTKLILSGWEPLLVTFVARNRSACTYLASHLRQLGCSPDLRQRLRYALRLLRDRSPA

[27] = target: Protein kinase C epsilon type (Homo sapiens) (UniProt Q02156); experiment: Inhibition of PRKCE (unknown origin) assessed as remaining activity at 10 uM by high-throughput assay relative to control
[28] = target: Ribosomal protein S6 kinase alpha-3 (Homo sapiens) (UniProt P51812); experiment: Inhibition of RSK2 Kin.Dom1.1-N-terminal (unknown origin) assessed as remaining activity at 10 uM by high-throughput assay relative to control
Chain of Ribosomal protein S6 kinase alpha-3 (Homo sapiens) (P51812 whole entry): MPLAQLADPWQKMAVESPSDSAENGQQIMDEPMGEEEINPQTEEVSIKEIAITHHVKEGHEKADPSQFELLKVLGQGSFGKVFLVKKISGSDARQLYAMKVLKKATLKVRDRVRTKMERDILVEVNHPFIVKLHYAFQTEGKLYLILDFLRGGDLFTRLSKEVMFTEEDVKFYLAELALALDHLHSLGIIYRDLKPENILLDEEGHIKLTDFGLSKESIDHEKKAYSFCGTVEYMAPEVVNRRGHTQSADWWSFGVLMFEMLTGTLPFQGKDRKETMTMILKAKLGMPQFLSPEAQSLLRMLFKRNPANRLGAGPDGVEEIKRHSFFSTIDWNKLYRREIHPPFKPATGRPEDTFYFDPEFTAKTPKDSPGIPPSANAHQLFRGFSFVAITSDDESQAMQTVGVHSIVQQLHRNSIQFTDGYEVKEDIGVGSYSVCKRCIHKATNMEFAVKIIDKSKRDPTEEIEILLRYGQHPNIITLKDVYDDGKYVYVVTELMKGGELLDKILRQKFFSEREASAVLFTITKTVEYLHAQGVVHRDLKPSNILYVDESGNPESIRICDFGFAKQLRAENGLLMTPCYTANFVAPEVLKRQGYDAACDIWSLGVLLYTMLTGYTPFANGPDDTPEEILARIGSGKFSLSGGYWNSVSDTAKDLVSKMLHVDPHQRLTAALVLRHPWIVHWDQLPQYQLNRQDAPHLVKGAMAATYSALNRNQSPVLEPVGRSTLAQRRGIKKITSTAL

[29] = target: Angiopoietin-1 receptor (Homo sapiens) (UniProt Q02763); experiment: Inhibition of TIE2 (unknown origin) assessed as remaining activity at 10 uM by high-throughput assay relative to control
Chain of Angiopoietin-1 receptor (Homo sapiens) (Q02763 whole entry, the tested form may be a part): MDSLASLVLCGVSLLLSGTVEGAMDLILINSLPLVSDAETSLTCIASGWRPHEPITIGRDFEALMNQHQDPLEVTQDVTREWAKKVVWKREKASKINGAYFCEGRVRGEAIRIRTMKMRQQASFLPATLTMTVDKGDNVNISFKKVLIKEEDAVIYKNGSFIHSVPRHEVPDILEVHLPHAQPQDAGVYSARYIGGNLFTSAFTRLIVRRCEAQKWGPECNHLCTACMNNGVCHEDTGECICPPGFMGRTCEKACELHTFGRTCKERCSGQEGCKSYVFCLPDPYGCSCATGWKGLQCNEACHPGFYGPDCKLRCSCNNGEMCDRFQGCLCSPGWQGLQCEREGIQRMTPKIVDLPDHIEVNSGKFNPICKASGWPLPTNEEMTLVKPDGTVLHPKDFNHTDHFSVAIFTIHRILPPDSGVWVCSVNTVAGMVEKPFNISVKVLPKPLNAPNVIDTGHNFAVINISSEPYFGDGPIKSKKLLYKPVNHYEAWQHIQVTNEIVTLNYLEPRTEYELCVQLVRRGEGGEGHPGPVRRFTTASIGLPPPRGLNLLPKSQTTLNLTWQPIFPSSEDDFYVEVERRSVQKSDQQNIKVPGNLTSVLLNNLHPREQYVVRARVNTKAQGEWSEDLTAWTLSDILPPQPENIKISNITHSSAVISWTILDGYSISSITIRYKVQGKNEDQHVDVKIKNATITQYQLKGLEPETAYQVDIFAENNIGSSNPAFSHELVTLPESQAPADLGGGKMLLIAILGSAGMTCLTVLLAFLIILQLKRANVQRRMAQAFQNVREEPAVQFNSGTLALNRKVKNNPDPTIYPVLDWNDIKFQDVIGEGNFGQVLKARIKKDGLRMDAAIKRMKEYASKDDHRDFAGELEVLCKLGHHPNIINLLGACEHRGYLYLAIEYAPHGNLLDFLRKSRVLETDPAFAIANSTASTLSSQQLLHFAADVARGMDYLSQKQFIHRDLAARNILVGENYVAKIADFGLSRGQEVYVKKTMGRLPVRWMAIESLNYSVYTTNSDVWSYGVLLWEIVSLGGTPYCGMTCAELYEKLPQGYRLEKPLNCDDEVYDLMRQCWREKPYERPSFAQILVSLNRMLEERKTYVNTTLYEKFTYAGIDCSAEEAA

[30] = target: Non-receptor tyrosine-protein kinase TYK2 (Homo sapiens) (UniProt P29597); experiment: Inhibition of TYK2 JH1 catalytic domain (unknown origin) assessed as remaining activity at 10 uM by high-throughput assay relative to control
[31] = target: Serine/threonine-protein kinase 32C (Homo sapiens) (UniProt Q86UX6); experiment: Inhibition of YANK3 (unknown origin) assessed as remaining activity at 10 uM by high-throughput assay relative to control

Activity [1]: 93%
Activity [2]: 82%
Activity [3]: 48%
Activity [4]: 26%
Activity [5]: 53%
Activity [6]: 66%
Activity [7]: 82%
Activity [8]: 59%
Activity [9]: 77%
Activity [10]: 78%
Activity [11]: 52%
Activity [12]: 93%
Activity [13]: 51%
Activity [14]: 65%
Activity [15]: 73%
Activity [16]: 42%
Activity [17]: 58%
Activity [18]: 85%
Activity [19]: 64%
Activity [20]: 99%
Activity [21]: 95%
Activity [22]: 93%
Activity [23]: 99%
Activity [24]: 94%
Activity [25]: 92%
Activity [26]: 8.3%
Activity [27]: 96%
Activity [28]: 77%
Activity [29]: 74%
Activity [30]: 44%
Activity [31]: 78%
Structure (SMILES): O=C1c2ccccc2-c2c1oc1ccccc1c2=O
